No end group written: not given here.

Experiment [1] relates to primary culture hypothalamic neurons. As to the kind of experiment: Activated-Caspase 3 expression in serum-deprived primary cultured hypothalamic neurons. The class given is cell-based, mouse. The following applies: 48-hour serum deprivation; 50 nM TUF1[43-54] or 500 ng/ml anti-TUF1[43-54] IgG; preliminary qualitative analysis. On the procedure: Gestational day 16.5 mouse embryos were collected from deeply anesthetized pregnant dam (i.p. injection of 10 mg/Kg Beuthanasia). Embryos were placed in HAM F12+10% Fetal Calf Serum (FCS)+1 mg/ml glucose. Whole brains were dissected and placed in a dish containing Phosphate Buffer Saline (PBS)+1 mg/ml glucose+10 mM HEPES. Hypothalami were dissected from embryonic brains and placed into a conical tube containing 2 ml HAM F12+10 mg/ml Glucose+10 mM HEPES. Cells were dissociated by pipetting and then centrifuged at 200×g for 5 minutes. Cells were suspended in culture medium (HAM F12+10% FCS+10 mg/ml glucose+10 mM HEPES+[…]) and plated at 200,000 cells/25 mm flask. Plated cells were incubated for four days in humidified incubator maintained at 37° C. and 5% CO2 (NuAire NU-8600, NuAire, Inc., Plymouth, Minn.).
To gain insight into the survival effect of TUF1[43-54] polypeptide, serum deprivation was used as a stressor. […] Cells were assessed for activated-Caspase 3 expression by immunocytochemistry after 48-hour incubation.
Cultured cells were rinsed with PBS (2×), fixed with 4% Paraformaldehyde (5 minutes) and permeabilized with PBS+0.1% Tween-20 (PBST). […] Excess antibody was removed by PBST and labeled cells were detected using IMMPACT DAB chromogen (Vector Laboratories, Inc., Burlingame, Calif.) per manufacturer's recommendation.

A short description of experiment [2]: Food consumption after ICV TUF1 peptide infusion. It counts as in vivo. The following applies: rat, ICV administration. Here is the method: (§1) a) Intra-cerebroventricular (ICV) Cannulation Male Sprague-Dawley rats weighing 250-400 grams were anesthetized with ketamine (100 mg/kg) and xylazine (7 mg/kg) and placed in a stereotaxic device (David Kopf Instruments Corp., Tunjunga, Calif.) using atraumatic ear bars. An incision of the skin overlying the skull was made and anchor screws were inserted into the skull. Burr holes were drilled to allow the guide cannula to pass into the brain. The guide cannula (22-gauge, C313G; Plastics One, Roanoke, Va.) was placed at 0 mm posterior, 1.2 mm lateral and 3.5 mm ventral to bregma. The cannula was affixed using epoxy glue (Loctite 444; McMaster-Carr, Chicago, Ill.) followed by dental acrylic (Hygienic perm reline & repair resin, Type II, Class I; Henry Schein, Inc., Melville, N.Y.). The cannula was sealed and kept open by insertion of a ‘dummy’ cannula.
b) TUF1 Peptide Infusion 0 μg, 1 μg, or 10 μg TUF1 peptide diluted in artificial cerebrospinal fluid (aCSF, Harvard Apparatus, Holliston, Mass.) was injected into the brain through the in-dwelling cannulae immediately prior to behavioral measurement (described below). […]
Food intake, in grams, was measured by weighing food in the hopper daily for the two days prior to drug infusion and for the drug infusion days, and calculating the amount eaten by subtracting each day's food weight from that of the previous day.

The nature of experiment [3]: Fear-potentiated startle after ICV TUF1 peptide infusion. The settings on record: adult male rats. The class given is in vivo, rat. On the procedure:
as §1, with “cannula. […]” for “cannula.”
(§2) For fear potentiated startle, shock sensitization, and prepulse inhibition testing, animals were trained and tested in four identical 7.5 cm×9 cm×17 cm stabilimeter devices. […] Shock intensity was measured with a 1-kΩ resistor across a differential channel of an oscilloscope in series with a 100-kΩ resistor connected between two floor bars in each cage. Current was defined as the RMS voltage across the resistor and calculated in mA as 0.707×0.5 ×peak-to-peak voltage. […]

The nature of experiment [4]: Prepulse inhibition of startle after ICV TUF1 peptide infusion. It counts as in vivo, rat. The following applies: adult male rats, 1.0 μg or 10 μg ICV. Here is the method: as §1, with “cannula. […]” for “cannula.”
as §2

Experiment [5] can be described thus: Shock sensitization of startle after ICV TUF1 peptide infusion. The class given is in vivo, rat. The following applies: adult male rats, 1.0 μg or 10 μg ICV. On the procedure: as §1, with “cannula. […]” for “cannula.”
as §2

With AYKSYVRALPLL [TUF1[43-54]], in experiment [1], the “cell death (activated-Caspase 3) following serum-deprivation” value is recorded as “fewer cell death”. Moreover, in experiment [2], the food consumption result is recorded as “influences food consumption”. In addition, the shock reactivity result in experiment [3] (1.0 μg or 10 μg ICV) was “No effect”. Further, the fear potentiated startle entry in experiment [3] (1.0 μg or 10 μg via lateral ventricle cannulae, vs control subjects) is “reduced fear potentiated startle”. In addition, the pre-pulse inhibition result in experiment [4] was “No effect”. In experiment [5], the shock sensitization entry is given as “No effect”.
